Laboratory results as given in US9944721B2, “Polysialic acid and use for treatment of neurodegenerative and neuroinflammatory diseases” (RHEINISCHE FRIEDRICH-WILHELMS UNIVERSITÄT BONN, priority 2013, dated 2018).

System: human iPS cell derived neurons
Experiment: MTT cell viability of human iPS cell derived neurons
Assay type: cell-based
Settings: 24 hours
Method: Human induced pluripotent stem (iPS) cells (Foreskin-1, WiCell) were used for generation of primitive neural stem cell (pNSC) and their differentiation into neurons according to a modified protocol, which was described to obtain primitive neural precursors from human embryonic stem cells. Briefly, iPS cells were cultured on feeder cells to form small colonies. Next, medium was changed to neural stem cell medium (DMEM/F12:Neurobasal; GIBCO) in the presence of leukaemia inhibiting factor (LIF; Millipore, 10 ng/ml) and three small molecules CHIR99021 (inhibitor of GSK-30, Axon Medchem, […]) and SB431542 (inhibitor of TGF-β and activin receptors; Axon Medchem, 3 μM), and Compound E (inhibitor of γ-secretase; Axon Medchem, 0.1 μM) for 10 days. […]
Cell viability was determined by the (3-(4,5-Dimethylthiazol-2-yl)-2,5-diphenyltetrazolium bromide (MTT) assay (Millipore). Cells were treated for 24 hours with 5 nM, 15 nM, 50 nM, 150 nM, 500 nM, 1.5 μM, 5 μM, 15 μM, 50 μM or 150 μM of PSA-20. After 20 hours of stimulation, 10 μl of MTT-reagent was added and cells were cultured for another 4 hours. Then, cells were lysed with isopropanol containing 0.04 M HCl 1M to measure the dye formazan. The light absorbance of the purple formazan dye was determined by a spectrophotometer at a wavelength of 570 nm with a reference wavelength of 630 nm (Perkin Elmer, Envision Multiplate Reader). […]

poly-(α(2→8)Neu5Ac)n [PSA-20]
cell viability of human neurons (MTT) (5 nM to 150 μM, FIG. 10A): not reduced | neuronal cell viability (MTT) (150 μM): no interference
